{"source": "ChEMBL document CHEMBL5126546", "about": "“Advancements in the development of multi-target directed ligands for the treatment of Alzheimer's disease” (Bioorg Med Chem, 2022)", "key": {"Cholinesterase [1]": {"biological_target": "T1, Cholinesterase (Equus caballus, UniProt P81908)", "T1 sequence (P81908 whole entry)": "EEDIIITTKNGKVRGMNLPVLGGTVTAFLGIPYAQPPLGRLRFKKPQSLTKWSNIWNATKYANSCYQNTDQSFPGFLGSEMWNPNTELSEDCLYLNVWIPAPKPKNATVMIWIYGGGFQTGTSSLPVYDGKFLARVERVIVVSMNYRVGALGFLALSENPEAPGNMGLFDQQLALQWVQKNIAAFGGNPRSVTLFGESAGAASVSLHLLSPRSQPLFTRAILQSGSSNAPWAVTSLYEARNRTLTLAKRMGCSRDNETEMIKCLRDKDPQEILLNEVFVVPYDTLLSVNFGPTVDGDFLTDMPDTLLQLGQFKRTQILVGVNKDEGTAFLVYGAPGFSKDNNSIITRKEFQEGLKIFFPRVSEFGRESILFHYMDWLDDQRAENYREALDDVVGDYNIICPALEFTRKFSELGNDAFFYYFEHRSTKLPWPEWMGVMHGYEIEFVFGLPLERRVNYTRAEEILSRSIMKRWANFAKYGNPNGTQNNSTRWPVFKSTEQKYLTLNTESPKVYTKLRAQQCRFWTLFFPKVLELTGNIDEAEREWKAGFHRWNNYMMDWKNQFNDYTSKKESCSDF", "experiment": "Inhibition of equine serum BuChE using butyrylthiocholine iodide as substrate preincubated for 5 mins followed by substrate addition and measured for 2 mins by spectrophotometric based Ellman's method"}, "Acetylcholinesterase [2]": {"biological_target": "T2, Acetylcholinesterase (Electrophorus electricus, UniProt O42275)", "T2 sequence (O42275 whole entry)": "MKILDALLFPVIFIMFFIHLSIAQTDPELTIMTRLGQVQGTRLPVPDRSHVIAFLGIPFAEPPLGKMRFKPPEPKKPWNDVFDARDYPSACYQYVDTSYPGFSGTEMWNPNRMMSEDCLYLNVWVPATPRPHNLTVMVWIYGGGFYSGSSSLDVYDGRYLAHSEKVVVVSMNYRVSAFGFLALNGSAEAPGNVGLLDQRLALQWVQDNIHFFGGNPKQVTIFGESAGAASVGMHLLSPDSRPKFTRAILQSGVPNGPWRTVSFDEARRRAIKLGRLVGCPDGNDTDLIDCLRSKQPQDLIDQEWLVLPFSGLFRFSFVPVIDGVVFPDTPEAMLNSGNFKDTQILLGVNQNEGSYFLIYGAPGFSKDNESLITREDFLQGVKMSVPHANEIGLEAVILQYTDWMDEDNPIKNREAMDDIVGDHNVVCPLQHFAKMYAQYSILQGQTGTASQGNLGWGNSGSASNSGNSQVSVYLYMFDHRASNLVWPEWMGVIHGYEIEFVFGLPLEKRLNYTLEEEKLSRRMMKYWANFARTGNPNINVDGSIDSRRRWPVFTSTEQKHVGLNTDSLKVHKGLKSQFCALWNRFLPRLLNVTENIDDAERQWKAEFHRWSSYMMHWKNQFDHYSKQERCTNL", "experiment": "Inhibition of Electrophorus electricus AChE using acetylthiocholine iodide as substrate preincubated for 5 mins followed by substrate addition and measured for 2 mins by spectrophotometric based Ellman's method"}, "Cholinesterase [3]": {"biological_target": "T3, Cholinesterase (Homo sapiens, UniProt P06276)", "T3 sequence (P06276 whole entry)": "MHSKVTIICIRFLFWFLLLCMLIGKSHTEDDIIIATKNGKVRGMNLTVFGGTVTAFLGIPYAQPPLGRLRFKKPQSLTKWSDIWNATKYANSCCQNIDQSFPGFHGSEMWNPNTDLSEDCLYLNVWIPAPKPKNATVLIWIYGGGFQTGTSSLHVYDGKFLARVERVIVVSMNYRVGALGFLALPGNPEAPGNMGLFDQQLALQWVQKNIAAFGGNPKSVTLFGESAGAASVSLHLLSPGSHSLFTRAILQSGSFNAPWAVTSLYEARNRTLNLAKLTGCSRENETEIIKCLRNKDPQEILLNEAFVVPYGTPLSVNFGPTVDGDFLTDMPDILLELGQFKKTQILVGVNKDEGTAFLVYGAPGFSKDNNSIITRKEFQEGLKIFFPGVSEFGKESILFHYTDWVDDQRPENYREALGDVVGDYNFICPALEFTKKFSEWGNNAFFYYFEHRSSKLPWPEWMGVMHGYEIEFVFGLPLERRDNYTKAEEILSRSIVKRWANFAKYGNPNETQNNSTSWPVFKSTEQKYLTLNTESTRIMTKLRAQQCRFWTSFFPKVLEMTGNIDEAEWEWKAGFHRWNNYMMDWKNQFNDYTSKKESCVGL", "experiment": "Inhibition of BuChE (unknown origin) by spectrophotometric based Ellman's method"}, "Acetylcholinesterase [4]": {"biological_target": "T4, Acetylcholinesterase (Homo sapiens, UniProt P22303)", "T4 sequence (P22303 whole entry)": "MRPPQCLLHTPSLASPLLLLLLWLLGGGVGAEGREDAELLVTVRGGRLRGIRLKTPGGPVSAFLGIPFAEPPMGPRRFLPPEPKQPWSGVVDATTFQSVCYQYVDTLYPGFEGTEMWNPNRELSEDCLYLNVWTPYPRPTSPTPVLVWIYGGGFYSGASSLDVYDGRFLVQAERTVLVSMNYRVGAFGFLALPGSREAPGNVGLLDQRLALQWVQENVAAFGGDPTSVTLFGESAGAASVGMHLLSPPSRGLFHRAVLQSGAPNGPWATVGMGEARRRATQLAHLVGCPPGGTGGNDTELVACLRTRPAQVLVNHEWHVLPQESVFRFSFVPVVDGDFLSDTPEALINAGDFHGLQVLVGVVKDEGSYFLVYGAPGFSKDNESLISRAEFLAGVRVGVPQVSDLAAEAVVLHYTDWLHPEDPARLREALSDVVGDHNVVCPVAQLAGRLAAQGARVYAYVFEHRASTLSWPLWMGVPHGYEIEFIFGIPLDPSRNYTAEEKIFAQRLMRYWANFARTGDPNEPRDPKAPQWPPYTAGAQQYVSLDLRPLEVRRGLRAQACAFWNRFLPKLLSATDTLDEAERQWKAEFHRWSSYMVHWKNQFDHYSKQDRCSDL", "experiment": "Inhibition of AChE (unknown origin) by spectrophotometric based Ellman's method"}, "Acetylcholinesterase [5]": {"biological_target": "T4, Acetylcholinesterase", "experiment": "Inhibition of human AChE using acetylthiocholine iodide as substrate preincubated for 6 mins followed by substrate addition and measured for 12 mins by DTNB reagent based Ellman's method"}, "Cholinesterase [6]": {"biological_target": "T3, Cholinesterase", "experiment": "Inhibition of human BuChE using butyrylthiocholine iodide as substrate at 10 uM preincubated for 6 mins followed by substrate addition and measured for 12 mins by DTNB reagent based Ellman's method", "details": "time 18.0 min"}, "[7]": {"biological_target": "T5, Amyloid-beta precursor protein (Homo sapiens, UniProt P05067)", "T5 sequence (P05067 whole entry)": "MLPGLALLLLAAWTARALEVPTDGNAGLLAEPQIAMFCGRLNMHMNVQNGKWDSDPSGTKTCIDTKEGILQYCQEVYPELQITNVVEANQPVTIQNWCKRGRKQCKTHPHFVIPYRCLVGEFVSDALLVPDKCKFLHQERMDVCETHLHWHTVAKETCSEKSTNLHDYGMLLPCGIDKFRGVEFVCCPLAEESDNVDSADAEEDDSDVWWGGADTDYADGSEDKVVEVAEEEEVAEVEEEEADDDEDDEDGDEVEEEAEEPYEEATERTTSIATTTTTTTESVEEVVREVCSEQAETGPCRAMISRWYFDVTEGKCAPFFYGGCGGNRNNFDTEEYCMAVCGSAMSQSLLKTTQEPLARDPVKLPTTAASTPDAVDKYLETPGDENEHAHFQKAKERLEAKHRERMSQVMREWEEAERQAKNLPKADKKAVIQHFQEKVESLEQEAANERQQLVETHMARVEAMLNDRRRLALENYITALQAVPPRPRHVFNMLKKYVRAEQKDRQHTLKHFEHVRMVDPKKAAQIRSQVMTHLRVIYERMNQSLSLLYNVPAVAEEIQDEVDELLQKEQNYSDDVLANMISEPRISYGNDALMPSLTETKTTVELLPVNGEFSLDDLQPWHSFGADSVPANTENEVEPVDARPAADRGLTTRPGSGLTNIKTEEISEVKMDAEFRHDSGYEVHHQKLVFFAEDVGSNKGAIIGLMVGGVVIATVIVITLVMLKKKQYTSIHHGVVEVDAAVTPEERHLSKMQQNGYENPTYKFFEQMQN", "experiment": "Inhibition of amyloid beta (1 to 42) (unknown origin) self aggregation incubated for 24 hrs by Thioflavin T based fluorometric assay"}, "Beta-secretase 1": {"biological_target": "Beta-secretase 1 (Homo sapiens, UniProt P56817)", "experiment": "Inhibition of human BACE-1 using Rh-EVNLDAEFK-quencher as peptide substrate incubated for 1 hr in dark by FRET assay"}, "[8]": {"biological_target": "T5, Amyloid-beta precursor protein", "experiment": "Inhibition of self-induced amyloid beta (1 to 42) (unknown origin) aggregation by Thioflavin T based fluorometric assay"}, "[9]": {"biological_target": "72 kDa type IV collagenase (Homo sapiens, UniProt P08253)", "experiment": "Inhibition of MMP-2 (unknown origin) by Fluorometric analysis"}, "Acetylcholinesterase [10]": {"biological_target": "T4, Acetylcholinesterase", "experiment": "Inhibition of human AChE using acetylthiocholine iodide as substrate by Ellman's method"}, "Homo sapiens": {"species_on_record": "Homo sapiens", "experiment": "Selectivity index, ratio of IC50 for inhibition of human AChE to IC50 for inhibition of human BuChE"}, "SK-N-MC": {"tested_on": "SK-N-MC", "experiment": "Antiproliferative activity against human SK-N-MC cells assessed as reduction in cell proliferation incubated for 72 hrs by MTT assay", "type": "functional, cell-based"}, "[11]": {"biological_target": "T5, Amyloid-beta precursor protein", "experiment": "Inhibition of amyloid beta (1 to 42) (unknown origin) self aggregation at 100 uM and measured after 24 hrs by Thioflavin T based fluorometric assay"}, "[12]": {"biological_target": "T5, Amyloid-beta precursor protein", "experiment": "Inhibition of self induced amyloid beta (1 to 42) (unknown origin) aggregation incubated for 24 hrs by Thioflavin T based fluorometric assay"}, "Acetylcholinesterase [13]": {"biological_target": "T4, Acetylcholinesterase", "experiment": "Inhibition of recombinant human AChE using acetylthiocholine as substrate by Ellman's method"}, "[14]": {"biological_target": "Glycogen synthase kinase-3 beta (Homo sapiens) (UniProt P49841)", "experiment": "Inhibition of GSK-3beta (unknown origin) at 10 uM by Kinase-GLO reagent based assay"}, "Acetylcholinesterase [15]": {"biological_target": "T4, Acetylcholinesterase", "experiment": "Inhibition of recombinant human AChE using acetylthiocholine iodide as substrate by Ellman's method"}, "Cholinesterase [16]": {"biological_target": "T1, Cholinesterase", "experiment": "Inhibition of equine serum BuChE using butyrylthiocholine iodide as substrate by Ellman's method"}, "[17]": {"biological_target": "T6, Gamma-secretase (Homo sapiens) (UniProt Q96BI3+Q9NZ42+Q8WW43+P49768+Q92542+P49810)", "experiment": "Inhibition of gamma secretase in human H4 cells expressing human wild type APP assessed as reduction in amyloid beta 1-40 level at 100 uM for 12 hrs by ELISA", "type": "cell-based"}, "[18]": {"biological_target": "T6, Gamma-secretase (Homo sapiens)", "experiment": "Inhibition of gamma secretase in human H4 cells expressing human wild type APP assessed as reduction in amyloid beta 1-42 level at 100 uM for 12 hrs by ELISA", "type": "cell-based"}, "[19]": {"experiment": "Permeability of compound by PAMPA-BBB assay", "type": "ADME", "details": "read-out: permeability"}, "[20]": {"biological_target": "Microtubule-associated protein tau (Homo sapiens) (UniProt P10636)", "sequence (P10636 whole entry)": "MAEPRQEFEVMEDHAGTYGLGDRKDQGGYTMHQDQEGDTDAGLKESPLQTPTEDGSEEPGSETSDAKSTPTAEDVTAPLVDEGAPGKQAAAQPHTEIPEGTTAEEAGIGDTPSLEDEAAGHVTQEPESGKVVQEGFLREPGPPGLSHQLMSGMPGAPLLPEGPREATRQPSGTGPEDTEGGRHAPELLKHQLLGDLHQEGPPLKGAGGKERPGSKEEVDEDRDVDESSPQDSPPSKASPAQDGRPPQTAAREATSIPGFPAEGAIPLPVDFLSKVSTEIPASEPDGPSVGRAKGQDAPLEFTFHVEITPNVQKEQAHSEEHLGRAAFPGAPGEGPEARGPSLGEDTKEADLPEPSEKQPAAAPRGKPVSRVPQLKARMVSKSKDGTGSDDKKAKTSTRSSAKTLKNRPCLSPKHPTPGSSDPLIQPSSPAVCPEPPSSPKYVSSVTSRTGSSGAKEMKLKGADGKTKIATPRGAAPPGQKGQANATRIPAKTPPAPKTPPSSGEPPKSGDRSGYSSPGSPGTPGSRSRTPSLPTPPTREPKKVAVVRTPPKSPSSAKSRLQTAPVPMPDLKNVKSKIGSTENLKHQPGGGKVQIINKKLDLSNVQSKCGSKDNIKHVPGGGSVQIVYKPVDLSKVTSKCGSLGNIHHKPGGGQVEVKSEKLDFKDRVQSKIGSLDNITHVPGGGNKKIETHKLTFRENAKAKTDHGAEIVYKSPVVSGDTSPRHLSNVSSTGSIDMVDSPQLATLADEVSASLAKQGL", "experiment": "Inhibition of tau aggregation (unknown origin) at 20 uM for 72 hrs by thioflavin S based fluorescence analysis"}, "[21]": {"biological_target": "T5, Amyloid-beta precursor protein", "experiment": "Inhibition of Cu2+ induced amyloid beta (1 to 42) (unknown origin) aggregation at 25 uM and measured after 24 hrs by Thioflavin T based fluorometric assay"}, "Cholinesterase [22]": {"biological_target": "T1, Cholinesterase", "experiment": "Inhibition of horse serum BuChE using butyrylthiocholine chloride as substrate by spectrophotometric based Ellman's method"}, "Acetylcholinesterase [23]": {"biological_target": "T2, Acetylcholinesterase", "experiment": "Inhibition of electric eel AChE using acetylthiocholine iodide as substrate by spectrophotometric based Ellman's method"}, "[24]": {"biological_target": "Amine oxidase [flavin-containing] B (Homo sapiens, UniProt P27338)", "sequence (P27338 whole entry)": "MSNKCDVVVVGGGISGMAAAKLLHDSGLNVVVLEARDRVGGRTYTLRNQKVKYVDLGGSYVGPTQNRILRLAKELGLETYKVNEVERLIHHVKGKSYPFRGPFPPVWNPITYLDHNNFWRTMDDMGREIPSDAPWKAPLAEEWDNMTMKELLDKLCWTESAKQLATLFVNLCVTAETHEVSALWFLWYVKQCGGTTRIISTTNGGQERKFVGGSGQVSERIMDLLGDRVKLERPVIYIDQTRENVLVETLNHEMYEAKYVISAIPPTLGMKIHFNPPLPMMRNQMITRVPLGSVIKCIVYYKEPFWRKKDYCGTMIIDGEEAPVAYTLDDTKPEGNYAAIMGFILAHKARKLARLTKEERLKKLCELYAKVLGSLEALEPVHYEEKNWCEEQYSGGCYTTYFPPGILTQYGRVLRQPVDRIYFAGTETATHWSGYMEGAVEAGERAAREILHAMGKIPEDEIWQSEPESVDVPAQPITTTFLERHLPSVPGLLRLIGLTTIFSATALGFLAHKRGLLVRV", "experiment": "Inhibition of recombinant human MAO-B using p-tyramine as substrate preincubated for 15 mins followed by substrate addition and measured after 30 mins by Amplex Red reagent based fluorometric analysis"}, "[25]": {"biological_target": "Amine oxidase [flavin-containing] A (Homo sapiens, UniProt P21397)", "sequence (P21397 whole entry)": "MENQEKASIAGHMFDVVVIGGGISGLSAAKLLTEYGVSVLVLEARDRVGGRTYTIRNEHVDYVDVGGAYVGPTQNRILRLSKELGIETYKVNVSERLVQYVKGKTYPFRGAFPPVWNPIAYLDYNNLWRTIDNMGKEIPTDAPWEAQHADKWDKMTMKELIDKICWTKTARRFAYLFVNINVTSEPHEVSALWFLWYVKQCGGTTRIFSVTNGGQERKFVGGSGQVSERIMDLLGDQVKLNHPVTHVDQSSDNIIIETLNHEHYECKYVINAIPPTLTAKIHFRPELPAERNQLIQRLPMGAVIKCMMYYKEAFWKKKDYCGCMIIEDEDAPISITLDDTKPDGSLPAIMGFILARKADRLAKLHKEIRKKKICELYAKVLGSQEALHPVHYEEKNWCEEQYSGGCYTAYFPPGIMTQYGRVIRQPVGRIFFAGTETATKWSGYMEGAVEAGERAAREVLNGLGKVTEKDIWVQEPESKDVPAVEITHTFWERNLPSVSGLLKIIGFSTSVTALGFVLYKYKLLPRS", "experiment": "Inhibition of recombinant human MAO-A using p-tyramine as substrate preincubated for 15 mins followed by substrate addition and measured after 30 mins by Amplex Red reagent based fluorometric analysis"}}, "note": "pIC50: −log10 of the molar value."}
{"smiles": "c1ccc(C[n+]2ccc(-c3nc4ccccc4s3)cc2)cc1", "values": [{"measurement": "pIC50", "setting": "Cholinesterase [1]", "result": 6.74}, {"measurement": "pIC50", "setting": "Acetylcholinesterase [2]", "result": 7.85}]}
{"smiles": "O=C(OC[C@H]1O[C@@H](OC(=O)c2cc(O)c(O)c(O)c2)[C@H](OC(=O)c2cc(O)c(O)c(O)c2)[C@@H](OC(=O)c2cc(O)c(O)c(O)c2)[C@@H]1O)c1cc(O)c(O)c(O)c1", "values": [{"measurement": "pIC50", "setting": "Cholinesterase [3]", "result": 4.74}, {"measurement": "pIC50", "setting": "Acetylcholinesterase [4]", "result": 4.93}]}
{"smiles": "O=C(CCN1CCN(Cc2ccccc2)CC1)Nc1ccc2nc3n(c(=O)c2c1)CCC3", "values": [{"measurement": "pIC50", "setting": "Acetylcholinesterase [5]", "result": 5.48}, {"measurement": "inhibition", "setting": "Cholinesterase [6]", "result": 45.3, "unit": "%"}, {"measurement": "pIC50", "setting": "[7]", "result": 5.03}, {"measurement": "pIC50", "setting": "Beta-secretase 1", "result": 6.89}]}
{"smiles": "O=c1cc(/N=N/N=P(CCP(=N/N=N/c2cc(=O)oc3ccccc23)(c2ccccc2)c2ccccc2)(c2ccccc2)c2ccccc2)c2ccccc2o1", "values": [{"measurement": "pIC50", "setting": "[8]", "result": 3.47}, {"measurement": "pIC50", "setting": "[9]", "result": 3.36}, {"measurement": "pIC50", "setting": "Acetylcholinesterase [10]", "result": 7.46}, {"measurement": "Ratio IC50", "setting": "Homo sapiens", "result": 3.81}]}
{"smiles": "O=C(N/N=C/c1ccccn1)c1ccc(C(=O)NC23CC4CC(CC(C4)C2)C3)cc1", "values": [{"measurement": "pIC50", "setting": "SK-N-MC", "result": 4.37}]}
{"smiles": "CCOC(=O)C(Cc1cn(-c2ccccc2)nn1)(Cc1cn(-c2ccccc2)nn1)NC(C)=O", "values": [{"measurement": "inhibition", "setting": "[11]", "result": 96.9, "unit": "%"}, {"measurement": "pIC50", "setting": "[12]", "result": 5.09}]}
{"smiles": "Clc1ccc2c(NCCCNCC34CC5CC(CC(C5)C3)C4)ccnc2c1", "values": [{"measurement": "pIC50", "setting": "Acetylcholinesterase [13]", "result": 6.30}]}
{"smiles": "CO[C@@H]1C=C[C@@]23c4cc5c(cc4CN(C[C@@H]2OC(=O)c2ccc([N+](=O)[O-])cc2)C3C1)OCO5", "note": "(some centres undefined)", "values": [{"measurement": "inhibition", "setting": "[14]", "result": 27, "unit": "%"}, {"measurement": "pIC50", "setting": "Acetylcholinesterase [15]", "result": 4.83}]}
{"smiles": "CCN1CCN(c2ccc(-c3nc4ccccc4[nH]3)cc2)CC1", "values": [{"measurement": "pIC50", "setting": "Acetylcholinesterase [15]", "result": 5.29}, {"measurement": "pIC50", "setting": "Cholinesterase [16]", "result": 4.46}]}
{"smiles": "O=S(=O)(NC12CC3CC(CC(C3)C1)C2)C1CCCS1", "note": "(centres undefined)", "values": [{"measurement": "inhibition", "setting": "[17]", "result": 26, "unit": "%"}, {"measurement": "inhibition", "setting": "[18]", "result": 88, "unit": "%"}]}
{"smiles": "CC1=C[C@H]2c3c(O)cc(-c4cc5ccc(O)cc5o4)cc3O[C@@]3(c4ccc(O)c5c4OC(C)(C)C=C5)Oc4cc(O)ccc4[C@H](C1)[C@@H]23", "values": [{"measurement": "Papp", "setting": "[19]", "result": 8.7, "unit": "×10⁻⁶ cm/s"}, {"measurement": "inhibition", "setting": "[20]", "result": 63.3, "unit": "%"}]}
{"smiles": "CCN(CC)Cc1ccc(/C=C/C(=O)c2ccc(OC)c(OC)c2)cc1O", "values": [{"measurement": "inhibition", "setting": "[21]", "result": 20.2, "unit": "%"}]}
{"smiles": "O=C(N/N=C/Nc1c2c(nc3ccccc13)CCCC2)C12CC3CC(CC(C3)C1)C2", "values": [{"measurement": "pIC50", "setting": "Cholinesterase [22]", "result": 6.21}, {"measurement": "pIC50", "setting": "Acetylcholinesterase [23]", "result": 5.17}]}
{"smiles": "C#CCOc1ccc(-c2cc(-c3ccc(OCCN4CCOCC4)cc3)nc(N)n2)cc1", "values": [{"measurement": "pIC50", "setting": "[24]", "result": 5.00}, {"measurement": "pIC50", "setting": "[25]", "result": 4.74}]}
